Results published in US8188128B2, “Opioid receptor subtype-selective agents” (The University of Medicine and Dentistry of New Jersey, priority 2005, dated 2012).
Where two headings read alike, the source gives them in different places.

Experiments:
[1] = target: T1, delta receptor (Mus musculus, UniProt P32300); assay: Opioid receptor binding assay, δ, [3H]DPDPE, HEK 293 cell membranes; design: species or system rat; details: for Selectivity κ/δ / Selectivity μ/δ: ratio of IC50 values; for IC50: compounds of Formula II, Table III
T1 construct: expressed in transfected cells
Protocol: (§1) Receptor binding assay: Cell membrane preparations were obtained from HEK 293-stable transfectants expressing either the murine δ or μ or the human κ receptor. Opioid receptor binding assays were conducted in duplicate on membrane preparations that had been resuspended in 50 mM Tris-HCl, pH 7.5, utilizing [^3H]DPDPE, [^3H]DAMGO and [^3H]U69593 as radiologand for δ, μ, and κ respectively and 10 μM cyclazocine to define non-specific binding. Following a 1 hour incubation on ice, binding assays were terminated by filtration through Whatman GF/B filters. Filters were soaked in Ecoscint liquid scintillation solution (National Diagnostics, Manville, N.J.) and filter-bound radioactivity was measured using a Packard Tri-Carb 2100 TR liquid scintillation analyzer. Receptor binding data was analyzed by non-linear regression of saturation and competition curves using Prisim 3.0 software (GraphPad Software, San Diego, Calif.). Protein concentrations were determined with the Bio-Rad protein using bovine serum albumin as the standard.

[2] = target: T2, human kappa receptor (Homo sapiens, UniProt P41145); assay: Opioid receptor binding assay, κ, [3H]U69593, HEK 293 cell membranes
T2 construct: expressed in transfected cells
Protocol: as §1

[3] = target: T3, δ-receptor (Mus musculus, UniProt P32300); assay: Function at δ receptor (receptor down regulation assay, HEK 293 cells expressing FLAG-tagged δ-receptor); format: cell-based; design: FLAG; expressed in transfected cells; host or cells: HEK 293 (G418 selection); details: for Function at δ: compounds of Formula I
Protocol: Receptor down regulation assays: HEK 293 cells expressing the FLAG-tagged δ-receptor were grown to near confluence in 100 mm dishes in DMEM media supplemented with 10% fetal calf serum and 0.25 mg/ml G418. Media was replaced with serum-free media prior to overnight incubation with 10 μM or 20 μM of DOP or control compound. Media was aspirated and cell washed twice with cold PBS. Cell homogenates were collected and further washed trice with 50 mM TRIS-HCl, pH 7.5. Protein concentration was measured using Bio-Rad Bradford reagent and equal amount of protein (50 μg) was used for binding assay. Binding assays were performed using [^3H]diprenorphine as the radioactive ligand. Binding assays were conducted as described above.

[4] = target: T4, mu receptor (Mus musculus, UniProt P42866); assay: Opioid receptor binding assay, μ, [3H]DAMGO, HEK 293 cell membranes; design: species or system rat; details: compounds of Formula II, Table III
T4 construct: expressed in transfected cells
Protocol: as §1, with “Opioid” for “Receptor binding assay: Cell membrane preparations were obtained from HEK 293-stable transfectants expressing either the murine δ or μ or the human κ receptor. Opioid”

[5] = target: T5, kappa opioid receptor (Homo sapiens, UniProt P41145); assay: Function at the kappa opioid receptor; details: Table III
T5 construct: expressed in transfected cells

[6] = target: T6, mu opioid receptor (Mus musculus, UniProt P42866); assay: Function at the mu opioid receptor; details: Table III
T6 construct: expressed in transfected cells

[7] = target: T3, δ-receptor; details: literature values for comparison compounds; cited from earlier work
[8] = inhibition of [3H]U69593, HEK 293 cell membrane, compounds of Formula I, read-out: IC50 (nM) κ
[9] = compounds of Formula II, Table III, read-out: IC50 κ

T2 sequence (P41145 whole entry): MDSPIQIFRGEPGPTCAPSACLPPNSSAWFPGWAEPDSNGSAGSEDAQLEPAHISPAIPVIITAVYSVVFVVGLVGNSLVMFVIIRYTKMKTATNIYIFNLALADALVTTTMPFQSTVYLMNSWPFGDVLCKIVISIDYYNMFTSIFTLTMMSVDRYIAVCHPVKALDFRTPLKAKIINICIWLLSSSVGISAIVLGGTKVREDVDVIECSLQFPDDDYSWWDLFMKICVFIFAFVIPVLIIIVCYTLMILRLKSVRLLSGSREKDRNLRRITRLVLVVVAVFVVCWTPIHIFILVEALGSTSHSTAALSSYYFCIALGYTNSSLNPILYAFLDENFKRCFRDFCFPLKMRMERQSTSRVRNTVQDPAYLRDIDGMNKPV
T3 sequence (P32300 whole entry): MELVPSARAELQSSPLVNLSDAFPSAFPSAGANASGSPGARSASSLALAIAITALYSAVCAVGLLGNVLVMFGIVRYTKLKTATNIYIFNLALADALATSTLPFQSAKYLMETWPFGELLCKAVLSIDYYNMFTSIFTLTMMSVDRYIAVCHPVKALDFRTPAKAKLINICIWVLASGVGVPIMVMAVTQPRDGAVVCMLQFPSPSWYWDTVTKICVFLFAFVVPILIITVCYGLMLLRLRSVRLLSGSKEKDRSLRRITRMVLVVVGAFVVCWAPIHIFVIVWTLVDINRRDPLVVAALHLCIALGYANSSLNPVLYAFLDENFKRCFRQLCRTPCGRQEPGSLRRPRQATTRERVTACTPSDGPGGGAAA
T1 sequence (P32300 whole entry): as above
T4 sequence (P42866 whole entry): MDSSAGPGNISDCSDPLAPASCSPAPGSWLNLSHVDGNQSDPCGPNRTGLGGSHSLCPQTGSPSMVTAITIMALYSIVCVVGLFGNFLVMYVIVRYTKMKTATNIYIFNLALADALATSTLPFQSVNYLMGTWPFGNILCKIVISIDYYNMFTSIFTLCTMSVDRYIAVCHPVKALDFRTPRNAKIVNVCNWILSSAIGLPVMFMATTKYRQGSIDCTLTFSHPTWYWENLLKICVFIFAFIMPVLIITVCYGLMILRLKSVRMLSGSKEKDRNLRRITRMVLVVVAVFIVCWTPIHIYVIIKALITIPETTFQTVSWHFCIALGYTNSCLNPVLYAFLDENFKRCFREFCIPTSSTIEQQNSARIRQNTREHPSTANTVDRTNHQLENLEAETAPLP
T5 sequence (P41145 whole entry): as the sequence (P41145 whole entry) above
T6 sequence (P42866 whole entry): as the sequence (P42866 whole entry) above

Row | Structure (SMILES) | Selectivity κ/δ [1] | Selectivity μ/δ [1] | IC50 [2, 8] | Function at δ [3] | IC50 [1] | IC50 [4] | IC50 [2, 9] | other results
1 | CN(C)Cc1nc(-c2cccc(C(C)(C)C)c2)n(-c2cccc(O)c2)n1 [DOP106, 3-[5-(3-tert-Butyl-phenyl)-3-dimethylaminomethyl-[1,2,4,]triazole-1-yl]-phenol] | 7 | 50 | 341 ± 20 nM | Agonist | – | – | – | –
2 | CN(C)Cc1nc(-c2ccc(C(C)(C)C)cc2)n(-c2cccc(O)c2)n1 [DOP108, 3-[5-(4-tert-Butyl-phenyl)-3-dimethylaminomethyl-[1,2,4,]triazole-1-yl]-phenol] | – | – | 3850 ± 311 nM | Agonist | – | – | – | –
3 | Cc1ccc(-c2nc(CN(C)C)nn2-c2cccc(O)c2)c(C)c1 [DOP110] | 1.3 | 8.9 | 351 ± 95 nM | Agonist | – | – | – | –
4 | CN(C)c1nnc(-c2cccc(O)c2)n1-c1ccc(C(C)(C)C)cc1 [DST8S] | – | – | – | – | 2780 nM | 991 nM | 2130 nM | –
5 | CN(C)c1nnc(-c2cccc(O)c2)n1-c1cccc(C(C)(C)C)c1 [DST10S] | – | – | – | – | 114 nM | 118 nM | 23 nM | Function at the kappa opioid receptor [5]: particularly strong agonist; Function at the mu opioid receptor [6]: moderate to strong antagonist; Function at the delta opioid receptor ([3]; compound of Formula II, Table III): moderate to strong antagonist
6 | C=CCN1C[C@H](C)N([C@H](c2ccc(C(=O)N(CC)CC)cc2)c2cccc(OC)c2)C[C@H]1C [SNC80] | – | – | – | – | – | – | – | Function at δ [7]: Agonist
